Experimental data: patent US20190127381A1, “SUBSTITUTED FUSED PYRIMIDINONE COMPOUNDS” (TORRENT PHARMACEUTICALS LIMITED, priority 2016, published 2019)

Experiments:
[1] = tested on: cigarette smoke induced Neutrophil accumulation in BAL Fluid; experiment: Acute guinea pig model of airway inflammation (tobacco smoke, COPD); format: in vivo; conditions: for % Inhibition of neutrophil against vehicle group: exposure 56 minutes; for Neutrophil (*10^6 cells/animal) in BAL fluid: whole body aerosol exposure 56 minutes, day 6 to day 11, Mean ± SEM
Excerpt: The tobacco smoke induced airway inflammation model is used for in vivo efficacy of compound. Many investigators have used acute tobacco smoke (TS) exposure in rodents as models of airway inflammation for quick screening of anti-inflammatory therapies for COPD (J Pharmacol Exp Ther. 2008; 324(3):921-9; J Pharmacol Exp Ther. 2010; 332(3):764-75; Journal of Inflammation 2013, 10(Suppl 1):31 and Eur Respir J Suppl 2006; 663s:3850). Given its position as predominant cause of COPD, animal models using TS exposure would appear to be the logical choice for investigation (Respir Res. 2004; 2;5:18).
Guinea pigs were exposed to tobacco smoke (TS) in an acrylic chamber. Animals were exposed to TS from 5, 10, 15 cigarettes on day 1, day 2, day 3 respectively. From day 4 onwards till day 11, animals were exposed to TS from 15 cigarettes per day. On 11 days of exposure of guinea pig to TS, significant inflammatory cell recruitment, predominantly neutrophils, to lungs was observed as compared to air exposed control guinea pig (BALF neutrophil levels, 0.59±0.15*10^6 cells/animal in air control group vs 8.3±1.4*10^6cells/animal in smoke exposed vehicle group)
Lung delivery of test compound was achieved by whole body aerosol exposure using nebulizer for 56 minutes in a chamber. Guinea pig were divided in different dose groups and exposed in a chamber for 56 minutes with vehicle or Compound No. 39 (1 mg/ml or 3 mg/ml). A total quantity of 6.0 ml of either vehicle or test compound formulation was nebulized in chambers to respective groups over 56 mins period. Test compound was administered 2 hr prior to TS exposure from day 6 to day 11. Bronchoalveolar lavage (BAL) was performed 24 hr post last TS exposure.
Trachea of animal was cannulated using catheter. Phosphate Buffer Saline (PBS) was used as lavage fluid. A volume of 5.0 ml was gently instilled and withdrawn and collected in microcentrifuge tube placed on ice. This procedure was repeated further 5 times.
(§1) Lavage fluid was separated from cells by centrifugation and supernatant separated. The cell pallet was resuspended in known volume of PBS. Cells in aliquot were stained using Turk solution and total cell numbers were calculated by counting Turk stained aliquot under microscope using haemocytometer.
The residual cell suspension was resuspended and slides prepared using cyto centrifuge technique (Cytospin 4, Thermo Shandon). […] Up to 300 cells were counted and differentiated using standard morphometric techniques under light microscopy.
All results are presented at individual data for each animal and mean value calculated for each group. Percentage inhibition for the neutrophil was calculated for Compound No 39 treatment group against vehicle group.

[2] = target: T1, purified recombinant human PI3K enzyme γ (Homo sapiens, UniProt P48736); experiment: Inhibition of PI3-Kinase enzymatic activity (HTRF enzyme assay), γ; format: biochemical; conditions: 1 μM compound; PI3K γ 100 ng/well; PIP2 10 μM; ATP 50 μM; read-out: Percentage inhibition of PI3K activity, γ
T1 construct: purchased Invitrogen, USA
T1 sequence (P48736 whole entry): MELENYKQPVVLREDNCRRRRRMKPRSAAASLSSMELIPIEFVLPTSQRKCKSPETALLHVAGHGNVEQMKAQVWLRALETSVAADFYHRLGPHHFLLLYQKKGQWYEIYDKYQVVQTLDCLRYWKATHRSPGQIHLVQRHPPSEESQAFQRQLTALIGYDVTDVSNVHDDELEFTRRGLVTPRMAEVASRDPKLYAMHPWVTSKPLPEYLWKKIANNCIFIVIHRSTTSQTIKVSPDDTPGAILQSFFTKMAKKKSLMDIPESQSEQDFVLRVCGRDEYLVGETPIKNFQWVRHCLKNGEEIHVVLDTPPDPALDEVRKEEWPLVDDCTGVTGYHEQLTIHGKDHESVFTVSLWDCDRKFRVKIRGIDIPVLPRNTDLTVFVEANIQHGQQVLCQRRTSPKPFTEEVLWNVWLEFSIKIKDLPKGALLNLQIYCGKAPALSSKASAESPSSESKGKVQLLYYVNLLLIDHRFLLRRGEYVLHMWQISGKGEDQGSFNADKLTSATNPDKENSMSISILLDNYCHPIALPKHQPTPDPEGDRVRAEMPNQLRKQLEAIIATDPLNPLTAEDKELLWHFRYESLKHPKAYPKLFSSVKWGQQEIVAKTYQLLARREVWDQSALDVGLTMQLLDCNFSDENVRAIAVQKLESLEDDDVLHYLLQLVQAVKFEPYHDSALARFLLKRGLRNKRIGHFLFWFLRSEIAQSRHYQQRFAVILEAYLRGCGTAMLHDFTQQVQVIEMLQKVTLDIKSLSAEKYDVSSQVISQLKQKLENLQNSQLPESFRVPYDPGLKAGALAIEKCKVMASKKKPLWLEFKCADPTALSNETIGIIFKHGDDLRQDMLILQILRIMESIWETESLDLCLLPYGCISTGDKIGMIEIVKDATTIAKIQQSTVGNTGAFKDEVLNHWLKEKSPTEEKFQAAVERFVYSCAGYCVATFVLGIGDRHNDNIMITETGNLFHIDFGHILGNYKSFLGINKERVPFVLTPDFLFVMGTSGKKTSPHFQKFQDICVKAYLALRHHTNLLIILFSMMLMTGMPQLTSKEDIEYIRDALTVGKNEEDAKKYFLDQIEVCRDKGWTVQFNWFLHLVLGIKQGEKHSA
In short: (§2)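 HTRF assay with compound at 1 μM (1.0% DMSO), recombinant human PI3Kδ (50 ng/well) or γ (100 ng/well) and PIP2 (10 μM), preincubated 15 min at room temperature. ATP (δ 200 μM, γ 50 μM) was then added for 30 min at room temperature. Percent inhibition was derived from the 665/615 nm signal ratio.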

[3] = target: T2, purified recombinant human PI3K enzyme δ (Homo sapiens, UniProt O00329); experiment: Inhibition of PI3-Kinase enzymatic activity (HTRF enzyme assay), δ; format: biochemical; conditions: 1 μM compound; PI3K δ 50 ng/well; PIP2 10 μM; ATP 200 μM; read-out: Percentage inhibition of PI3K activity, δ
T2 construct: purchased Invitrogen, USA
T2 sequence (O00329 whole entry): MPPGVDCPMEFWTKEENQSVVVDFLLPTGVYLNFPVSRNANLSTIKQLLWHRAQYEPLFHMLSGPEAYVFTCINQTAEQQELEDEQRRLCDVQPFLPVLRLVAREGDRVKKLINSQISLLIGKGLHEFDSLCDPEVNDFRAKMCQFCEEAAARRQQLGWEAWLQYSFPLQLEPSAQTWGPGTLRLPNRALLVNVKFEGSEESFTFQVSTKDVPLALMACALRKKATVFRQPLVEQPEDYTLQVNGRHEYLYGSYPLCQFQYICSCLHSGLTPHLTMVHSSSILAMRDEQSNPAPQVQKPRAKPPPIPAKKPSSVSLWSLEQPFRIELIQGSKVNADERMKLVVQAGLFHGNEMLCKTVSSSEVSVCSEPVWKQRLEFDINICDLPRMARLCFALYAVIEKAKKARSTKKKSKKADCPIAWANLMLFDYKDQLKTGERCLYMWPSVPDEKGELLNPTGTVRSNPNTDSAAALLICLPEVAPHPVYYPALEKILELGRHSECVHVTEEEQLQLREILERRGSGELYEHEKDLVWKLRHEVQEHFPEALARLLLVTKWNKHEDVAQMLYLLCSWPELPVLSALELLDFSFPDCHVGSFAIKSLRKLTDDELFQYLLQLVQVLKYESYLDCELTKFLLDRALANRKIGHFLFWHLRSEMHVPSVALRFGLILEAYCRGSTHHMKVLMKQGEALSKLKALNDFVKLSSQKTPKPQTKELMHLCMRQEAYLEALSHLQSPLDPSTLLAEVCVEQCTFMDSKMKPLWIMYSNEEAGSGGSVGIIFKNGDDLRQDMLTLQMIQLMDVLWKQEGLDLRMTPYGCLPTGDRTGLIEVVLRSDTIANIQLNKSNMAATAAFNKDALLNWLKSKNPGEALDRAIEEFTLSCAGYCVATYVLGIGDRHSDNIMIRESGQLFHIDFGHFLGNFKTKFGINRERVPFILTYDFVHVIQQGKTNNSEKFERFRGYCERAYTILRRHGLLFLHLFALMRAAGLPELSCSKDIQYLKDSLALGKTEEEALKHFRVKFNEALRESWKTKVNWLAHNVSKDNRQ
T2 sequence (P27986 whole entry partner): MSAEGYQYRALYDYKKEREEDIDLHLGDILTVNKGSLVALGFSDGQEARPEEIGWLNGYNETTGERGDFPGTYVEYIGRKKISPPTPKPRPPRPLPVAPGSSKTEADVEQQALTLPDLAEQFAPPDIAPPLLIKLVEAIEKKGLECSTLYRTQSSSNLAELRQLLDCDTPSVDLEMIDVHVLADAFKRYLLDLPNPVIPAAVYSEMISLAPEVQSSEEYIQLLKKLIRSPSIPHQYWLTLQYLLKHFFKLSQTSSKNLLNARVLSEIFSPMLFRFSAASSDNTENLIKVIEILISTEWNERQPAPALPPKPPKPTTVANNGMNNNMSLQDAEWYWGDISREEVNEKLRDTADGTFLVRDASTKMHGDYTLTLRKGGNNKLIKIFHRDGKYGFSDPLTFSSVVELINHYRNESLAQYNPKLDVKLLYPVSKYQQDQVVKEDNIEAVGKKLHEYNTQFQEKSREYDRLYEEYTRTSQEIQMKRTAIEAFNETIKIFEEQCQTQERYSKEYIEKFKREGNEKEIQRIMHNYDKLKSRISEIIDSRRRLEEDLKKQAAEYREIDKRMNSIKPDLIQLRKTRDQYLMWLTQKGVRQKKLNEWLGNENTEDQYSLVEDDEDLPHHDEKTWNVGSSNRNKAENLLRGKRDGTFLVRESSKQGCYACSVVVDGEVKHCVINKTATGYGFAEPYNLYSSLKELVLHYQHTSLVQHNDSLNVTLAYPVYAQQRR
In short: as §2

[4] = tested on: OVA induced pulmonary inflammatory cell accumulation in BAL fluid; experiment: Ovalbumin (OVA) model of airway inflammation (asthma) in mice; format: in vivo; conditions: OVA challenge
Method: Allergen chicken egg ovalbumin (OVA) model, which shares features similar to human allergic asthma, including the presence of eosinophilic and lymphocytic lung inflammation, is frequently used for model for asthma. Ovalbumin is an inert protein that is not intrinsically immunogenic and therefore needs to be injected systemically in the presence of an adjuvant, typically aluminum hydroxide (alum), to induce Th2-driven response in mice (Curr. Protoc. Mouse Biol. 6:169-184, 2016).
Ovalbumin (20 μg) (OVA, Sigma Aldrich, St. Louis, Mo.), emulsified with inject alum (1 mg, 0.2 mL) was administered in mice intraperitoneally (i.p.) on days 1 and 14 for sensitization, and then challenged with OVA (0.5% w/v) exposure for 30 minutess using nebulizer on days 21, 22 and 23 in Compound no 44 treated and vehicle control animals. Saline control mice received normal saline as sensitization and challenge dose in similar fashion.
Lung delivery of compound of present invention was achieved by whole body aerosol exposure using nebulizer for 25 minutes in a chamber. Mice were divided in different dose groups and exposed in a chamber for 25 minutes with vehicle or Compound no 44 (1 mg/ml or 3 mg/ml). Test compound/vehicle was administered once daily for 5 days starting from day 20 till day 24. On each challenge day treatment was administered 2 hr before OVA challenge. Bronchoalveolar lavage (BAL) was performed 48 hr post last OVA exposure (i.e. on day 25).
Trachea of animal was cannulated using catheter. Phosphate Buffer Saline (PBS) was used as lavage fluid. A volume of 0.5 ml was gently instilled and withdrawn and collected in microcentrifuge tube placed on ice. This procedure was repeated further 3 times.
as §1
The residual cell suspension was resuspended with PBS and slides prepared using cyto centrifuge technique (Cytospin 4, Thermo Shandon). The slides were then fixed with methanol, air dried and stained with May Grunwald Giemsa stain. Up to 300 cells were counted and differentiated using standard morphometric techniques under light microscopy.
All results are presented at individual data for each animal and mean value calculated for each group. Percentage inhibition for each cell type is calculated as below.
% inhibition=[(Vehicle treatment−Drug treatment)/(Vehicle treatment−Saline treatment)]*100

[5] = 1 mg/ml nebulized 25 minutes once daily for 5 days
[6] = 3 mg/ml nebulized 25 minutes once daily for 5 days

In the case of `Cc1cccc2nc(Cn3nc(-c4ccc(O)c5c4CC(C)(C)O5)c4c(N)ncnc43)n(-n3c(C)ccc3C)c(=O)c12` [Compound No. 39, 2-{[4-amino-3-(7-hydroxy-2,2-dimethyl-2,3-dihydro-1-benzofuran-4-yl)-1H-pyrazolo[3,4-d]pyrimidin-1-yl]methyl}-3-(2,5-dimethyl-1H-pyrrol-1-yl)-5-methylquinazolin-4(3H)-one], the “% Inhibition of neutrophil against vehicle group” value ([1]; 1 mg/ml nebulized) is reported as 22%, the “Neutrophil (*10^6 cells/animal) in BAL fluid” value ([1]; 1 mg/ml nebulized) is reported as 6.5 ± 3.2 *10^6 cells/animal and the “% Inhibition of neutrophil against vehicle group” value ([1]; 3 mg/ml nebulized) is reported as 68%. For the same compound, the “Neutrophil (*10^6 cells/animal) in BAL fluid” value ([1]; 3 mg/ml nebulized) was 2.7 ± 1.4 *10^6 cells/animal, the inhibition at 1 µM [2] was 80 to 100% and the inhibition at 1 µM [3] was 80 to 100%.
For `Cn1cc(-c2cccc3nc(Cn4nc(-c5ccc(O)c6c5CC(C)(C)O6)c5c(N)ncnc54)n(-n4cccc4)c(=O)c23)cn1` [Compound No. 44, 2-{[4-amino-3-(7-hydroxy-2,2-dimethyl-2,3-dihydro-1-benzofuran-4-yl)-1H-pyrazolo[3,4-d]pyrimidin-1-yl]methyl}-5-(1-methyl-1H-pyrazol-4-yl)-3-(1H-pyrrol-1-yl)quinazolin-4(3H)-one], the inhibition at 1 µM [2] was 80 to 100%, the inhibition at 1 µM [3] was 80 to 100% and the “reduced eosinophil influx (% inhibition) in BAL fluid” value [4, 5] was 42%. For the same compound, the “reduced lymphocyte influx (% inhibition) in BAL fluid” value [4, 5] was 27%, the “reduced eosinophil influx (% inhibition) in BAL fluid” value [4, 6] was 56% and the “reduced lymphocyte influx (% inhibition) in BAL fluid” value [4, 6] was 39%.
Work on `Cc1cccc(C2(n3c(Cn4nc(-c5ccc(O)c6c5CC(C)(C)O6)c5c(N)ncnc54)nc4cccc(C#CCO)c4c3=O)CC2)c1` [compound 31, 2-{[4-amino-3-(7-hydroxy-2,2-dimethyl-2,3-dihydro-1-benzofuran-4-yl)-1H-pyrazolo[3,4-d]pyrimidin-1-yl]methyl}-5-(3-hydroxyprop-1-yn-1-yl)-3-[1-(3-methylphenyl)cyclopropyl]quinazolin-4(3H)-one] yielded an inhibition at 1 µM [2] of 60 to 80% and an inhibition at 1 µM [3] of 80 to 100%.
With `Cc1ccc(C)n1-n1c(Cn2nc(-c3ccc(O)c4c3CC(C)(C)O4)c3c(N)ncnc32)nc2cccc(C#CC3CC3)c2c1=O` [compound 43, 2-{[4-amino-3-(7-hydroxy-2,2-dimethyl-2,3-dihydro-1-benzofuran-4-yl)-1H-pyrazolo[3,4-d]pyrimidin-1-yl]methyl}-5-(cyclopropylethynyl)-3-(2,5-dimethyl-1H-pyrrol-1-yl)quinazolin-4(3H)-one] the inhibition at 1 µM [2] was 80 to 100% and the inhibition at 1 µM [3] was 80 to 100%.
`Cn1nccc1-c1cccc2nc(Cn3nc(-c4ccc(O)c5c4CC(C)(C)O5)c4c(N)ncnc43)n(-n3cccc3)c(=O)c12` [compound 22, 2-{[4-amino-3-(7-hydroxy-2,2-dimethyl-2,3-dihydro-1-benzofuran-4-yl)-1H-pyrazolo[3,4-d]pyrimidin-1-yl]methyl}-5-(1-methyl-1H-pyrazol-5-yl)-3-(1H-pyrrol-1-yl)quinazolin-4(3H)-one] gave an inhibition at 1 µM [2] of 60 to 80% and an inhibition at 1 µM [3] of 80 to 100%.
`Cc1ccc(C)n1-n1c(Cn2nc(-c3ccc(O)c4c3CC(C)(C)O4)c3c(N)ncnc32)nc2ccccc2c1=O` [compound 88, 2-{[4-amino-3-(7-hydroxy-2,2-dimethyl-2,3-dihydro-1-benzofuran-4-yl)-1H-pyrazolo[3,4-d]pyrimidin-1-yl]methyl}-3-(2,5-dimethyl-1H-pyrrol-1-yl)quinazolin-4(3H)-one] was tested, and the inhibition at 1 µM [2] was 80 to 100% and the inhibition at 1 µM [3] was 80 to 100%.
Work on `CC1(C)Cc2c(-c3nn(Cc4nc5cccc(-c6ccoc6)c5c(=O)n4-n4cccc4)c4ncnc(N)c34)ccc(O)c2O1` [compound 23, 2-{[4-amino-3-(7-hydroxy-2,2-dimethyl-2,3-dihydro-1-benzofuran-4-yl)-1H-pyrazolo[3,4-d]pyrimidin-1-yl]methyl}-5-(furan-3-yl)-3-(1H-pyrrol-1-yl)quinazolin-4(3H)-one] yielded an inhibition at 1 µM [2] of 80 to 100% and an inhibition at 1 µM [3] of 80 to 100%.
Compound `CC1(C)Cc2c(-c3nn(Cc4nc5cccc(-c6ccsc6)c5c(=O)n4C4(c5ccccc5)CC4)c4ncnc(N)c34)ccc(O)c2O1` [compound 25, 2-{[4-amino-3-(7-hydroxy-2,2-dimethyl-2,3-dihydro-1-benzofuran-4-yl)-1H-pyrazolo[3,4-d]pyrimidin-1-yl]methyl}-3-(1-phenylcyclopropyl)-5-(thiophen-3-yl)quinazolin-4(3H)-one] has an inhibition at 1 µM [2] of 80 to 100% and an inhibition at 1 µM [3] of 80 to 100%.
In the case of `CCn1cc(-c2cccc3nc(Cn4nc(-c5ccc(O)c6c5CC(C)(C)O6)c5c(N)ncnc54)n(-n4cccc4)c(=O)c23)cn1` [compound 45, 2-{[4-amino-3-(7-hydroxy-2,2-dimethyl-2,3-dihydro-1-benzofuran-4-yl)-1H-pyrazolo[3,4-d]pyrimidin-1-yl]methyl}-5-(1-ethyl-1H-pyrazol-4-yl)-3-(1H-pyrrol-1-yl)quinazolin-4(3H)-one], the inhibition at 1 µM [2] is reported as 60 to 80% and the inhibition at 1 µM [3] is reported as 80 to 100%.
`Cc1cccc2nc(C(C)n3nc(-c4ccc(O)c5c4CC(C)(C)O5)c4c(N)ncnc43)n(-n3cccc3)c(=O)c12` (racemic) [compound 96, 2-{(1RS)-1-[4-amino-3-(7-hydroxy-2,2-dimethyl-2,3-dihydro-1-benzofuran-4-yl)-1H-pyrazolo[3,4-d]pyrimidin-1-yl]ethyl}-5-methyl-3-(1H-pyrrol-1-yl)quinazolin-4(3H)-one] was tested, and the inhibition at 1 µM [2] was 80 to 100% and the inhibition at 1 µM [3] was 80 to 100%.
